PMC10412597, “Small molecule branched-chain ketoacid dehydrogenase kinase (BDK) inhibitors with opposing effects on BDK protein levels” (Nature Communications, 2023)

Target: Kdr Kinase (VEGFR2) (Homo sapiens, UniProt P35968)
Test: biochemical
Set-up: Cerep Bioprint off-target panel, enzyme or kinase inhibition
Description: To discover a potent and selective BDK inhibitor, a subset of the Pfizer compound collection was screened. […] Off target activity was assessed in both CEREP and kinase panels (Supplementary Tables 2, 3).

Sequence of Kdr Kinase (VEGFR2) (P35968 whole entry): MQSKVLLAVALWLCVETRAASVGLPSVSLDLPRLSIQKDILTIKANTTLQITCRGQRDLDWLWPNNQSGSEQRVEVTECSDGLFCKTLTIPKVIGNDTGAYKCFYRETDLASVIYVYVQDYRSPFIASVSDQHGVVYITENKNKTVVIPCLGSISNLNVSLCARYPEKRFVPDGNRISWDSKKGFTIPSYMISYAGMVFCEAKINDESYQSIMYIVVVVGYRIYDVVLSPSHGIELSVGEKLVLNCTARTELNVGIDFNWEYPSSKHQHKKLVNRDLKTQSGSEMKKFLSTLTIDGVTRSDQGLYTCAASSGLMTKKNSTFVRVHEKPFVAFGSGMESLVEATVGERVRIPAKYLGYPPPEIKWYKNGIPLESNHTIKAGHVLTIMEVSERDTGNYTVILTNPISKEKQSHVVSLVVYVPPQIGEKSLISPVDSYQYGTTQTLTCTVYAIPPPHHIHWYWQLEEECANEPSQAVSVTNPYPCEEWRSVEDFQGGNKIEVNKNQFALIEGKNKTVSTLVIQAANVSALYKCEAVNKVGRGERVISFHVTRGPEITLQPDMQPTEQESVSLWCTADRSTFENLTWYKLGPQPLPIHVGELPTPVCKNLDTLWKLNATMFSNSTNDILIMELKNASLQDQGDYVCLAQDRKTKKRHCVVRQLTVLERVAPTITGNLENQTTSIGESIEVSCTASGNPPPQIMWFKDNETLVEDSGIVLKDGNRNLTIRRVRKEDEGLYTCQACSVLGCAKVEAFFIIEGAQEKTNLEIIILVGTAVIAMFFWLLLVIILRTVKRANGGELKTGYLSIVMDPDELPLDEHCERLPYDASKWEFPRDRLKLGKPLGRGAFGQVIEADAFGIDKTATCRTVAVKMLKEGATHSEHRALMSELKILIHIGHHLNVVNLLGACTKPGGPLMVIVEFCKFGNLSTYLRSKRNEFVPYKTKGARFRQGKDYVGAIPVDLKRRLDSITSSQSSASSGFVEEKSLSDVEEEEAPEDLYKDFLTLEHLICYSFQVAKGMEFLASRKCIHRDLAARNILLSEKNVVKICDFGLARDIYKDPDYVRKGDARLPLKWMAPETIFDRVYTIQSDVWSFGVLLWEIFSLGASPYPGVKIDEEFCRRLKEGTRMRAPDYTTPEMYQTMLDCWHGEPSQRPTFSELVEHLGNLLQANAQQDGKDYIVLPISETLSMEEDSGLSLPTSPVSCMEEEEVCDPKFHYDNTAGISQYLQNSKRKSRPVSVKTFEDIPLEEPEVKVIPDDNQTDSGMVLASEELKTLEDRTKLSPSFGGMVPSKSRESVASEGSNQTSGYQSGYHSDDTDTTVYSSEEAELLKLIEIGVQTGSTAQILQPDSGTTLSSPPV

O=C(O)c1sc2cc(F)sc2c1Cl [PF-07208254, 3-chloro-5-fluorothieno[3,2-b]thiophene-2-carboxylic acid]
IC50: 76 µM
